One assay addresses T1, human HDAC-6 (Homo sapiens, UniProt Q9UBN7).
T1 construct: made in house; host or cells: insect cells (baculovirus expression system)
T1 sequence (Q9UBN7 1-1215): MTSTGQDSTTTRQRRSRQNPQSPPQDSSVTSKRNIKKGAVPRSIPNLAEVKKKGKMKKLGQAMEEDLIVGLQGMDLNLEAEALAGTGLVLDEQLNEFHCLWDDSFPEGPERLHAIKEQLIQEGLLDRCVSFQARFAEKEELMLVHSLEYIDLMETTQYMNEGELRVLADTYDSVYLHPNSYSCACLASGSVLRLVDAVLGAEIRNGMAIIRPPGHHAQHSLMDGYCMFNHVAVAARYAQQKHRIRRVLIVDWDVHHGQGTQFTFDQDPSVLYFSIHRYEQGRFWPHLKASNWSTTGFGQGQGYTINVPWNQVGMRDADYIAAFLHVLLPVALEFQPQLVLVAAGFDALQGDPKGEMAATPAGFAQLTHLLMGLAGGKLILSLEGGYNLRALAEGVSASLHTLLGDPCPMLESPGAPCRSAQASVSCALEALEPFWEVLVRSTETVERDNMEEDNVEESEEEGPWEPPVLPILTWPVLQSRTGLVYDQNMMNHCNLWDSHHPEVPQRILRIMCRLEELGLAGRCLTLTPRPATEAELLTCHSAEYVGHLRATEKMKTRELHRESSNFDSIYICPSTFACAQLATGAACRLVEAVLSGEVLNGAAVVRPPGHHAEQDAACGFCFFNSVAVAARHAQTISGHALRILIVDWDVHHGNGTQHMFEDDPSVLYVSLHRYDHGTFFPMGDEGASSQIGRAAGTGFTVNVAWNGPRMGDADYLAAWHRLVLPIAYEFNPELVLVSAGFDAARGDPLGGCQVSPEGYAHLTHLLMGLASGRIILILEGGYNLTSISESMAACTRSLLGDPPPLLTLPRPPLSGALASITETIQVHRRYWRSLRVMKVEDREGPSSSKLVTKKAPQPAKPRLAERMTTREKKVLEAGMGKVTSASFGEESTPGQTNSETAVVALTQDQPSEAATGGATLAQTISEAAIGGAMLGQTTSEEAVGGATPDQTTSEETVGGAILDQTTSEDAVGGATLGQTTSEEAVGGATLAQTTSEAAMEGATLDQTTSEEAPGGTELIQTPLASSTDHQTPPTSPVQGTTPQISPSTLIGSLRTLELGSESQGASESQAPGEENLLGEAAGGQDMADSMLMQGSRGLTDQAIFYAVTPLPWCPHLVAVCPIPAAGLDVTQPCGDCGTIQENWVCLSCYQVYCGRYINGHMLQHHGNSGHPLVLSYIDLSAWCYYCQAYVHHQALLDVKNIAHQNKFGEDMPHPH
Nature of the assay: histone deacetylase enzyme assay, HDAC-6. It counts as biochemical. As for the experimental part: (§1) The other HDAC isotypes, HDAC-3 and HDAC-4, were purified directly on an anti-Flag affinity column.
(§2) For the deacetylase assay, 20,000 cpm of an [^3H]-metabolically-labeled acetylated histone was used as a substrate. Histones were incubated with cloned recombinant human HDAC enzymes at 37° C. […] All assay conditions were pre-determined to be certain that each reaction was linear. Reactions were stopped by adding acetic acid (0.04 M final concentration) and HCl (250 mM, final concentration). The mixture was extracted with ethyl acetate, and the released [3H]-acetic acid was quantified by liquid scintillation counting. For the inhibition studies, HDAC enzyme was preincubated with test compounds for 30 minutes at 4° C. prior to the start of the enzymatic assay. IC50 values for HDAC enzyme inhibitors were identified with dose response curves for each individual compound and, thereby, obtaining a value for the concentration of inhibitor that produced fifty percent of the maximal inhibition.

The target of another assay is T2, human HDAC-1 (Homo sapiens, UniProt Q13547).
T2 construct: made in house; host or cells: insect cells (baculovirus expression system)
The assay is described as follows: histone deacetylase enzyme assay, HDAC-1. It counts as biochemical. On the procedure: as §1, §2

The next assay concerns the target HDAC 2 (Homo sapiens, UniProt Q92769). Nature of the assay: histone deacetylase enzyme assay, HDAC 2. It counts as biochemical. On the procedure:
as §2

Another assay has as its target T3, human HDAC-3 (Homo sapiens, UniProt O15379).
T3 construct: made in house; host or cells: insect cells (baculovirus expression system)
The assay is described as follows: histone deacetylase enzyme assay, HDAC-3. It counts as biochemical. On the procedure:
as §1, §2

Another assay is described as follows: cell cycle arrest. Format: cell-based.
In another assay the target is T4, human HDAC-4 (Homo sapiens, UniProt P56524).
T4 construct: Flag; made in house; host or cells: human embryonic kidney 293 cells (calcium phosphate transfection)
The assay is described as follows: histone deacetylase enzyme assay, HDAC-4. It counts as biochemical. On the procedure:
Flag-tagged human HDAC-4 enzyme was produced in human embronic kidney 293 cells after transformation by the calcium phosphate precipitation method. Briefly, 293 cells were cultured in Dulbecco's Modified Eagle Medium (DMEM) containing 10% fetal bovine serum and antibiotics. Plasmid DNA encoding Flag-tagged human HDAC-4 was precipitated by ethanol and resuspend in sterile water. DNA-calcium precipitates, formed by mixing DNA, calcium choloride and 2×HEPES-buffered saline solution, were left on 293 cells for 12-16 hours. Cells were return to serum-contained DMEM medium and harvested at 48 hour post transfection for purification of Flag-tagged HDAC-4 enzyme.
as §1, §2

Another assay relates to p21. Nature of the assay: p21 induction by small molecules. Format: cell-based.
Assay [1] relates to acetylated histone H-4 in T24 human bladder cancer cells. The assay is described as follows: inhibition of HDAC activity in whole cells (acetylated histone H-4 Western). Format: cell-based. The following applies: 16 hours. On the procedure:
T24 human bladder cancer cells (ATCC, Manassas, Va.) growing in culture were incubated with test compounds for 16 hours. Histones were extracted from the cells by standard procedures (see e.g. Yoshida et al., supra) after the culture period. Twenty μg total core histone protein was loaded onto SDS/PAGE and transferred to nitrocellulose membranes, which were then reacted with polyclonal antibody specific for acetylated histone H-4 (Upstate Biotech Inc., Lake Placid, […].). Horse Radish Peroxidase conjugated secondary antibody was used at a dilution of 1:5000 to detect primary antibody binding. The secondary antibody binding was visualized by use of the Enhanced chemiluminescence (ECL) detection kit (Amersham-Pharmacia Biotech., Inc., Piscataway, N.J.). After exposure to film, acetylated H-4 signal was quantitated by densitometry.

The subject of assay [2] is human colon cancer HCT116 cells. Nature of the assay: MTT assay of cell proliferation and cytotoxicity. Format: cell-based. The following applies: HCT-116, 48 hours. On the procedure:
Four thousand five hundred (4,500) human colon cancer HCT116 cells (ATCC, Manassas, Va. were used in an MTT (3-[4,5-dimethylthiazol-2-yl]-2,5 diphenyl tetrazolium bromide) assay to quantitatively determine cell proliferation and cytotoxicity. Typically, HCT116 cells were plated into each well of the 96-well tissue culture plate and left overnight to attach to the plate. Compounds at various concentrations (1 uM, 5 uM and 25 uM, in DMSO) were added in triplicate into the culture media (final DMSO concentration 1%) and incubated for 48 hours. MTT solution (obtained from Sigma as powder) was added and incubated with the cells for 4 hours at 37° C. in incubator with 5% CO2. During the incubation, viable cells convert MTT to a water-insoluble formazan dye. Solubilizing buffer (50% N,N-dimethylformamide, 20% SDS, pH 4.7) was added to cells and incubate for overnight at 37C in incubator with 5% CO2. Solubilized dye was quantitated by colorimetric reading at […] using a reference of […].
In general terms: Formazan colour is commonly taken as a measure of viable cells.

Assay [3] relates to human colon cancer cells (HCT116). Nature of the assay: tumor growth in a mouse model, colon. The following applies: 40 mg/kg body weight/day, i p; vs vehicle-treated mice. Format: in vivo, BALB/c nude mice. On the procedure:
Female BALB/c nude mice were obtained from Charles River Laboratories (Charles River, NY) and used at age 8-10 weeks. Human prostate tumor cells (DU145, 2×10^6) or human colon cancer cells (HCT116; 2×10^6) or small lung core A549 2×10^6 were injected subcutaneously in the animal's flank and allowed to form solid tumors. Tumor fragments were serially passaged a minimum of three times, then approximately 30 mg tumor fragments were implanted subcutaneously through a small surgical incision under general anaesthesia. Small molecule inhibitor administration by intraperotineal or oral administration was initiated when the tumors reached a volume of 100 mm^3. For intraperotineal administration, small molecule inhibitors of HDAC (40-50 mg/kg body weight/day) were dissolved in 100% DMSO and administered daily intraperitoneally by injection. For oral administration, small molecule inhibitors of HDAC (40-50 mg/kg body weight/days) were dissolved in a solution containing 65% polyethylene glycol 400 (PEG 400 (Sigma-Aldridge, Mississauga, Ontario, Calif., Catalogue No. P-3265), 5% ethanol, and 30% water. Tumor volumes were monitored twice weekly up to 20 days. Each experimental group contained at least 6-8 animals. Percentage inhibition was calculated using volume of tumor from vehicle-treated mice as controls.

T3 sequence (O15379 whole entry): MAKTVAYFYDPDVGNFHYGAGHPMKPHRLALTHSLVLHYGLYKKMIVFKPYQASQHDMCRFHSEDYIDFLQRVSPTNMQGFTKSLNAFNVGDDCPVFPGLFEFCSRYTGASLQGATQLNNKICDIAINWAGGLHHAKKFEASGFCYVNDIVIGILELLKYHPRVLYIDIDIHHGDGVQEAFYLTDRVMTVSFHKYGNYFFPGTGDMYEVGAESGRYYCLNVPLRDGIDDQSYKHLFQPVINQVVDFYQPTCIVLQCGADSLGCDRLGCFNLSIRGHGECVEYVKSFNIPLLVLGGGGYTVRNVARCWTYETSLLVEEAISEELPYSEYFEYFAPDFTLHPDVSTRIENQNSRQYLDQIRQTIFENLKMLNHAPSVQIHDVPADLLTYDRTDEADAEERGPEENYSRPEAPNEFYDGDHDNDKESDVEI
T4 sequence (P56524 whole entry): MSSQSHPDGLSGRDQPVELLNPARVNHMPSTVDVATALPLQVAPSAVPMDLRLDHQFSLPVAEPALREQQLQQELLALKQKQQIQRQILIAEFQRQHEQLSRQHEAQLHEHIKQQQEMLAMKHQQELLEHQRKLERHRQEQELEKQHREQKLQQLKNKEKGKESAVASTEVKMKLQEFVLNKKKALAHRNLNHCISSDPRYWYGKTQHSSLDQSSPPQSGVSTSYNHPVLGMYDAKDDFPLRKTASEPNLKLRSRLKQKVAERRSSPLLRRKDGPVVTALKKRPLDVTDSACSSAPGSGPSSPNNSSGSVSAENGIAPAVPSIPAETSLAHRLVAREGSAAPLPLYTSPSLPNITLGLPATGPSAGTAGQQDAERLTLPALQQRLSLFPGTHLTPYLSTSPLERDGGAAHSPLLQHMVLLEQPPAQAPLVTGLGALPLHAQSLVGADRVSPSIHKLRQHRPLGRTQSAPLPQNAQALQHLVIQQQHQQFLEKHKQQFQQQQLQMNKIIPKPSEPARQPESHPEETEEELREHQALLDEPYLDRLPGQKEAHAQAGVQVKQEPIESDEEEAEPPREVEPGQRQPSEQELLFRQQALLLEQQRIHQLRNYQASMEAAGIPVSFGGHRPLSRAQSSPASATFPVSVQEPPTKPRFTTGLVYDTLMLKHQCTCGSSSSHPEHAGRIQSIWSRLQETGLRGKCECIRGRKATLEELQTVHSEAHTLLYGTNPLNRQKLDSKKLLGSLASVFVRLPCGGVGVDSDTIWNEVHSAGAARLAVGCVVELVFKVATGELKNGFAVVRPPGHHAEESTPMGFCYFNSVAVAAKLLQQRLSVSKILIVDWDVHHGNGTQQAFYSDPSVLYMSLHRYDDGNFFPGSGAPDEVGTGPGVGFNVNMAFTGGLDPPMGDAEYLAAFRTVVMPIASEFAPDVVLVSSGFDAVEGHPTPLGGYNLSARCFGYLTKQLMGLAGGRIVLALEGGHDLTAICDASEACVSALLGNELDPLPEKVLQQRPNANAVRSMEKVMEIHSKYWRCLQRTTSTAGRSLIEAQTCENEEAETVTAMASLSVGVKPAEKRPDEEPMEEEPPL
Sequence of HDAC 2 (Q92769 whole entry): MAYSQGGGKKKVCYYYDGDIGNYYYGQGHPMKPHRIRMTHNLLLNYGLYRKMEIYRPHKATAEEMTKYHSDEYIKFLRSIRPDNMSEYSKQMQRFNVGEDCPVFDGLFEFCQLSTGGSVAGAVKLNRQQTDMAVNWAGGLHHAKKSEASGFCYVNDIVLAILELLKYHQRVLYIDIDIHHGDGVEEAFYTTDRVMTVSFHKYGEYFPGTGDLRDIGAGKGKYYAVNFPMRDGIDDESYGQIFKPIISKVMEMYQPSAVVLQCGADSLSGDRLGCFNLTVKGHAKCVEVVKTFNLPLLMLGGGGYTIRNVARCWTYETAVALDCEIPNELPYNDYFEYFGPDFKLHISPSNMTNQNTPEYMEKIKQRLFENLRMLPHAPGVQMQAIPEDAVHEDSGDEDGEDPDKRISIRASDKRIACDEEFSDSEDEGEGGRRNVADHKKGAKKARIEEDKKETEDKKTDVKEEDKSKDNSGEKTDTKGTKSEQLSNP
T2 sequence (Q13547 whole entry): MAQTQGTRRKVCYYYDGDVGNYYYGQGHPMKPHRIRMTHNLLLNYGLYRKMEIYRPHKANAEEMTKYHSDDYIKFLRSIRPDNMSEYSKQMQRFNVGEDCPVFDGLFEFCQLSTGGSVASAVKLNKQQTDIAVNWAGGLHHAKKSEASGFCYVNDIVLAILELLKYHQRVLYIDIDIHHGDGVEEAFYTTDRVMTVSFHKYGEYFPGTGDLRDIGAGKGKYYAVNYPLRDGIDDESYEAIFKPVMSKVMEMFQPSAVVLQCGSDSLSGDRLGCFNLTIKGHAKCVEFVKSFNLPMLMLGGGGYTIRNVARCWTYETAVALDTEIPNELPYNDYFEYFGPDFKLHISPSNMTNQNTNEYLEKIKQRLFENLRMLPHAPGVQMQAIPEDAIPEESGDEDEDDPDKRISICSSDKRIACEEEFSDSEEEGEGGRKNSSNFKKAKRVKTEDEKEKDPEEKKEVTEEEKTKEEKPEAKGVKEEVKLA

Regarding `CC(/C=C/C(=O)Nc1ccccc1N)=C\C(C)C(=O)c1ccc(N(C)C)cc1` (stereo not drawn) [MG 242 9], the IC50 against human HDAC-6 was greater than 50 µM; on human HDAC-1, 3 µM; at HDAC 2 it was 25 µM; against human HDAC-3, 21 µM; on human HDAC-4, 23 µM; in assay [2] it was 1 µM. In addition, the “cell cycle arrest EC” value in the assay “cell cycle arrest” was found to be 2 µM. In addition, the p21 induction in the assay with p21 came to 3 µM. In addition, the “effective concentration for histone H4 acetylation” value (“effective concentration” below) in assay [1] came out at 1 µM.

For `Nc1ccccc1NC(=O)CCCCCCC(=O)c1ccc(-c2ccccc2)cc1` [MG 365 0], the IC50 against human HDAC-6 is greater than 50 µM; on HDAC 2, 4 µM; on human HDAC-3 it was greater than 20 µM; against human HDAC-4 it was 23 µM; in assay [2] it was 5 µM. In addition, in the assay “cell cycle arrest”, the “cell cycle arrest EC” value was 9 µM. Besides, the “% inh. of tumor formation in vivo, colon” value in [3] is given as 53 (40, i p) %. This compound gave a p21 induction with p21 of 10 µM. For the same compound, the “effective concentration” value in assay [1] turned out to be 10 µM.

Turning to `Cc1ccc(S(=O)(=O)Nc2ccc(/C=C/C(=O)Nc3ccccc3N)cc2)cc1` [MG 376 3], the IC50 against human HDAC-6 is greater than 50 µM; against human HDAC-1, 3 µM; at human HDAC-3 it was 45 µM; against human HDAC-4, 28 µM; in [2], 4 µM. Moreover, the “cell cycle arrest EC” value in the assay “cell cycle arrest” came out at 2 µM. In addition, the “% inh. of tumor formation in vivo, colon” value in [3] is given as 55 (40, i p) %. The p21 induction in the assay on p21 was determined as 2 µM. Moreover, in assay [1], the “effective concentration” value came to 5 µM.

Usually IC50 stands for the concentration needed to halve the response being measured. Higher therefore signals a need for much substance.
